pIC50: −log10 of the molar value. In brackets after ≈: the same amount, converted by molar mass. Read-outs that look alike come from different tables or passages of the source.
Assays:
[1] = test system: methicillin-resistant Staphylococcus aureus (MRSA); assay: In vitro antibacterial activity, broth microdilution (MIC90); conditions: read-out: Antibacterial activity MIC90, MRSA
From the text: (§4) MIC90 measurement was made according to the broth microdilution method based on the CLSI document [Clinical and Laboratory Standards Institute Document.
(§5) The test compounds in DMSO solution were further diluted 20-fold with sterile distilled water.

[2] = test system: linezolid- and vancomycin-resistant Enterococcus faecalis (LVRE); assay: as above; conditions: read-out: Antibacterial activity MIC90, LVRE
From the text: as §4, §5

[3] = Cytotoxicity measurement by MTT assay; format: cell-based; conditions: Chinese hamster
From the text: The MTT assay is a […], colorimetric assay for mammalian cell survival and cell proliferation. It depends on the reduction of tetrazolium salt MTT by the mito-chondrial succinate dehrogenase of viable cells to form a blue formazan product. The assay measures cell respiration, and the amount of formazan product to the number of living cells present in culture. In this test, Chinese hamster ovary cells (CHO-K1) were purchased from ATCC (USA). Subcultured CHO cells were detached from the culture flask by treating with trypsin-EDTA solution, and seeded on a 96-well microplate, with 5000 cells per each well. After culturing for 24 hours in a 37° C., 5% CO2 incubator, the cells were treated with the oxazolidinone derivatives according to the present invention synthesized in the above examples, at 7 different concentrations. After further culturing for 48 hours in a 37° C., 5% CO2 incubator, 15 uL of […] MTT solution was added to each well. The cells were further incubated in the 37° C., 5% CO2 incubator for about 2 hours. Then, the culture medium was discarded and 100 uL of DMSO solution was added to each well. After agitating the microplate for 30 minutes, absorbance was measured at 550 nm using Spectramax plus 190 plate reader (Molecular Devices, USA). The absorbance decrease of the compound-treated groups compared to the non-treated control group is an indication of the decrease of surviving cells, which enables the measurement of the cytotoxicity of the compounds. The CC50 value, i.e., the concentration at which the cell proliferation is reduced to 50%, of the compounds according to the present invention was computed using the GraFit statistical analysis program (version 5.0.12) purchased from Erithacus Software after calculating the percentages of the absorbance at various concentrations as compared to the control group.

[4] = target: T1, monoamine oxidase A (MAO A) (Homo sapiens, UniProt P21397); assay: MAO inhibition (MAO-GLO assay); format: biochemical; conditions: MAO-GLO kit, compounds at 3.9-500 uM; read-out: MAOA
T1 construct: purchased Sigma-Aldrich (USA)
T1 sequence (P21397 1-527): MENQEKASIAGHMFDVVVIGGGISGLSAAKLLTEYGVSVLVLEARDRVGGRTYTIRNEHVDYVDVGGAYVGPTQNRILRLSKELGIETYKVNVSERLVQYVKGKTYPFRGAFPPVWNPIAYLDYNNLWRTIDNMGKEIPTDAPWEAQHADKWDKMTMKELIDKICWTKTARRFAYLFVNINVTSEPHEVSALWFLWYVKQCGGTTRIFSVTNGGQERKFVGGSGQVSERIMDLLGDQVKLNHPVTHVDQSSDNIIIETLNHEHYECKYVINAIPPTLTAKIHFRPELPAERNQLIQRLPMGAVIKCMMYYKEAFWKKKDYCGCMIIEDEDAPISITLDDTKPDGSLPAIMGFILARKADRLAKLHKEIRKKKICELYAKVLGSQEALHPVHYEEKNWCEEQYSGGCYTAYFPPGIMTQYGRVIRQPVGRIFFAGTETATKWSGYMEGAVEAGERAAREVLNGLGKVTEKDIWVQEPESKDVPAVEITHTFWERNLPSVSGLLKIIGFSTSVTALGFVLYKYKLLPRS
Description: (§1) The oxazolidinone derivatives according to the present invention synthesized in the examples were tested for inhibition of monoamine oxidase A (MAO A) and monoamine oxidase B (MAO B). MAO-GLO assay kit was purchased from Promega (USA) and MAO A and MAO B enzymes were purchased from Sigma-Aldrich (USA). From the aldehyde product resulting from the action of the MAO enzyme on the amine group of the substrate, luciferin methyl ester is produced. The luciferin detection reagent is then added to inactivate the MAO enzymes. The esterase and the luciferase included in the reagent oxidize luciferin, thereby emitting light. The light emission is detected to measure the activity of MAO. The light emission was detected using LEADseeker (Amershan Bioscience, Sweden). MAO activity was measured in the presence of the compounds according to the present invention at 3.9-500 uM and compared with the non-treated control group. Linezolid was used as a comparison compound. For the measurement of the MAO inhibition activity of the compounds represented by Chemical Formula 1, the IC50 value, i.e., the concentration of the compounds at which the enzymatic activity is inhibited by 50% (This value is related with the inhibition constant Ki), can be determined. The concentration of the inhibitor at which the rate of hydrolysis of the substrate is reduced to 50% (i.e., the IC50 value) can be determined from a log plot of the relative rate of hydrolysis (as compared to the non-inhibited control group) versus the concentration of the compounds of Chemical Formula 1.
(§2) The MAO inhibition effect of the compounds of Chemical Formula 1 was measured by determining the inhibition constant Ki. Ki=IC50/{1+(┌S┐/Km)} Equation 1
(§3) In Equation 1, Km is the Michaelis-Menten constant, i.e., the concentration of the substrate at which the rate of enzymatic reaction is half of the maximum, and IC50 is the concentration of the inhibitor at which the rate of the hydrolysis of the substrate is reduced by 50%. The IC50 value was measured by plotting a log plot of the relative rate of hydrolysis (as compared to the non-inhibited control group) versus the concentration of the compounds of Chemical Formula 1. GraFit statistical analysis program (version 5.0.12) purchased from Erithacus Software was used.

[5] = target: T2, monoamine oxidase B (MAO B) (Homo sapiens, UniProt P27338); assay: MAO inhibition (MAO-GLO assay); format: biochemical; conditions: MAO-GLO kit, compounds at 3.9-500 uM; read-out: MAOB
T2 construct: purchased Sigma-Aldrich (USA)
T2 sequence (P27338 1-520): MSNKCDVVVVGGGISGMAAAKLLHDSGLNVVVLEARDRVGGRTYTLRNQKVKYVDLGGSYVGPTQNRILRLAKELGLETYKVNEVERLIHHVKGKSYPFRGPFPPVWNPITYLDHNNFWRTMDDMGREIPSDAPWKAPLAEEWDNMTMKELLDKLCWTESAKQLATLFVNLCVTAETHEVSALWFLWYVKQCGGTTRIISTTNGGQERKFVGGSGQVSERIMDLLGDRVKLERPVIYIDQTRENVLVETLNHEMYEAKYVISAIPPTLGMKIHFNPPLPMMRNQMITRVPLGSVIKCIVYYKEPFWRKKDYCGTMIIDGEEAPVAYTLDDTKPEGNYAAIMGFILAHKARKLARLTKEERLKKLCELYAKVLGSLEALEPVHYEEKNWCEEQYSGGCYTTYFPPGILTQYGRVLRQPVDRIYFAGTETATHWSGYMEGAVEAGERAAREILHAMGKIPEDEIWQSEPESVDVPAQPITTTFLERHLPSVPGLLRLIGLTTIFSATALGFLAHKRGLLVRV
Description: as §1, §2, §3

[6] = Measurement of solubility in water by 1H NMR; format: physicochemical; conditions: for solubility at 30 min: water, thermodynamic from solid
Description: Water solubilities of methanesulfonates (MSA) of representative compounds among the oxazolidinone derivatives of Chemical Formula 1 were measured.
Solubility measurement was done by ^1H NMR according to the following method. First, a methanesulfonate (100 mg) of the compound was added to D2O (0.5 mL). After preparing a saturated solution by vigorous shaking for 30 minutes, the solution was filtered and 0.3 mL is taken therefrom. A reference compound solution (0.3 mL) (In this test example, DMSO diluted with D2O was used.) with an exactly known concentration was added thereto. From the ^1H NMR spectrum of the solution, the integral ratio of the sample peak to the reference (DMSO) peak was calculated. Since the concentration of the reference solution is known, the mols of the sample can be calculated from the integral ratio. Then, the solubility of the sample was calculated.

MIC90 [1]	MIC [2]	pIC50 [4]	pIC50 [5]	MIC90 [2]	Compound	CC50 at 48 h [3]	solubility at 30 min [6]	CC50 at 48 h ([3]; CHO-K1 cells, 48 hours treatment, MTT, read-out: CC50)	% solubility in water ([6]; methanesulfonate (MSA) of the compound, saturated solution in D2O, linezolid as reference)	solubility at 30 min ([6]; read-out: Solubility of methanesulfonate in water)
1 µg/mL (≈ 3.24 µM)	64 µg/mL (≈ 208 µM)	5.40	3.75	–	CN1CCN(c2ccc(N3C[C@H](CO)OC3=O)cc2F)C=N1 [Compound 94]	> 130 µM	136 mg/mL (≈ 441000 µM)	–	–	–
–	–	> 5.70	5.21	–	Cn1nnc(-c2ccc(-c3ccc(N4C[C@H](CO)OC4=O)cc3F)cn2)n1 [TR-700, reference compound]	28 µM	–	–	–	–
0.25 µg/mL (≈ 0.713 µM)	4 µg/mL (≈ 11.4 µM)	4.05	4.08	–	COC(=S)NC[C@H]1CN(c2ccc(N3C=NOCC3)cc2)C(=O)O1 [Compound 102]	> 130 µM	–	–	–	–
2 µg/mL (≈ 5.93 µM)	–	5.10	5.37	32 µg/mL (≈ 94.9 µM)	CC(=O)NC[C@H]1CN(c2ccc(N3CCOCC3)c(F)c2)C(=O)O1 [Linezolid, linezolid, reference compound]	> 130 µM	–	–	–	–
0.25 µg/mL (≈ 0.68 µM)	4 µg/mL (≈ 10.9 µM)	–	–	–	COC(=S)NC[C@H]1CN(c2ccc(N3C=NNCC3)c(F)c2)C(=O)O1 [Compound 58]	–	–	–	–	–

Continued, compound first:

Compound	MIC90 [1]	MIC [2]	pIC50 [4]	pIC50 [5]	MIC90 [2]	CC50 at 48 h [3]	solubility at 30 min [6]	CC50 at 48 h ([3]; CHO-K1 cells, 48 hours treatment, MTT, read-out: CC50)	% solubility in water ([6]; methanesulfonate (MSA) of the compound, saturated solution in D2O, linezolid as reference)	solubility at 30 min ([6]; read-out: Solubility of methanesulfonate in water)
CN1CCN(c2ccc(N3C[C@H](Cn4ccnn4)OC3=O)cc2F)C=N1 [Compound 83]	1 µg/mL (≈ 2.78 µM)	16 µg/mL (≈ 44.5 µM)	4.72	3.68	–	> 130 µM	117 mg/mL (≈ 326000 µM)	–	–	–
COC(=S)NC[C@H]1CN(c2ccc(N3C=NN(C=O)CC3)c(F)c2)C(=O)O1 [Compound 53]	0.5 µg/mL (≈ 1.26 µM)	8 µg/mL (≈ 20.2 µM)	4.62	4.24	–	> 130 µM	–	–	–	–
CN1CCN(c2ccc(N3C[C@H](CNc4ccon4)OC3=O)cc2F)C=N1 [Compound 89]	0.5 µg/mL (≈ 1.34 µM)	8 µg/mL (≈ 21.4 µM)	5.28	< 3.60	–	–	–	> 130 µM	(13%)	129 mg/mL (≈ 345000 µM)
